{
  "source": "patent US20090304813A1",
  "about": "“VIRUCIDAL COMPOSITIONS AND USES” (priority 2006, published 2009)",
  "key": {"[1]": {"system": "Influenza A/Duck/MN/1525/81 (H5N1)", "parameters": "species or system BALB/c mice", "conditions": "mouse, in vivo"}, "[2]": {"test": "Tox controls of the oral treatment study in mice (Table 3)", "conditions": "75 mg/kg/day p.o., bid × 5 beg −4 h; initial weight vs 18 h after final treatment"}},
  "data": [
    {"molecule": "CCOC(=O)C1=C[C@@H](OC(CC)CC)[C@H](NC(C)=O)[C@@H](N)C1", "note": "[Tamiflu ™, oseltamivir phosphate]", "values": [
      {"measurement": "Number of surviving mice per group at day 19", "setting": "[1]", "result": "10/10 [100%]"},
      {"measurement": "surviving mice per group at day 19, percent", "setting": "[1]", "result": "10/10 [100%]"}
    ]},
    {"molecule": "NC(=O)c1ncn([C@@H]2O[C@H](CO)[C@@H](O)[C@H]2O)n1", "note": "[Ribavirin]", "values": [
      {"measurement": "Tox Controls Mean Host Weight Change", "setting": "[2]", "result": -0.8, "unit": "g"}
    ]}
  ]
}
